Consider 25 molecules from patent publication US7265130B2, “NPY Y5 antagonist” (Shionogi & Co., Ltd., priority 1999, dated 2007).

Each structure is given as a SMILES string.

A word on the IC50: it is the concentration that gives 50% inhibition. Read a high IC50 as lower potency.

The target of assay [1] is T1, human NPY Y5 receptor (Homo sapiens, UniProt Q15761).
T1 construct: expressed in transfected cells
T1 sequence (Q15761 1-445): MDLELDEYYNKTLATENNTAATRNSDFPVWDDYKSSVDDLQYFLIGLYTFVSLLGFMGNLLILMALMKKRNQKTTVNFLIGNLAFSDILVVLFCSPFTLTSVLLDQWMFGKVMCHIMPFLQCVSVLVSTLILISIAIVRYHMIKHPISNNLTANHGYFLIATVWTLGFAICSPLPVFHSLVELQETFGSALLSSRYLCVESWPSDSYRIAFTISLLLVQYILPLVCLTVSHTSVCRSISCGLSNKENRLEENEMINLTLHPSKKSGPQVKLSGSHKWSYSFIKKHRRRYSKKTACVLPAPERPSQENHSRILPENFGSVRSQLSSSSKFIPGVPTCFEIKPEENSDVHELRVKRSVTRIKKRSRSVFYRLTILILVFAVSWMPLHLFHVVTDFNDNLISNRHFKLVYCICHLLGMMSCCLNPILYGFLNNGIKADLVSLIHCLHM
The assay can be described thus: Affinity for NPY Y5 receptor ([125I] peptide YY binding, CHO cell membranes). As to conditions: inhibition of specific [125I] peptide YY binding, membranes of CHO cells expressing NPY Y5 receptor. Summed up: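 Membranes from CHO cells stably expressing human NPY Y5 receptor incubated with test compound and [125I] peptide YY (60 pM final) in HEPES-Hanks buffer with 0.1% BSA, pH 7.4, 25° C for 2 hours. Filter-bound radioactivity counted; non-specific binding with 200 nM peptide YY; IC50 against specific binding calculated.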

For assay [2], the target named is T1, human NPY Y5 receptor. The assay can be described thus: cAMP production inhibitory activity in CHO cells. The conditions noted are these: against 50 nM NPY inhibition of forskolin stimulated cAMP, CHO cells expressing human NPY Y5 receptor. Type of assay: cell-based. In a few lines:
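CHO cells expressing human NPY Y5 receptor preincubated 20 min at 37 °C with 2.5 mM IBMX, then with compound for 5 min. Stimulated with 50 nM NPY plus 10 μM forskolin for 30 min. Reaction stopped with 1N HCl; supernatant cAMP measured by EIA.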

Take `CC(C)(C)S(=O)(=O)NC1CCC(C(=O)Nc2cccc(O)c2)CC1` (centres unmarked) [Compound I-163]: the IC50 in assay [1] was determined as 2.3 nM; in assay [2] it was 83 nM.

Turning to `CC(C)(C)S(=O)(=O)NC1CCC(C(=O)Nc2ccc(F)c(C(F)(F)F)c2)CC1` (centres unmarked) [Ia-160], the figures for the half-maximal inhibitory concentration (IC50) in assay [1] and in assay [2] were 0.76 nM and 140 nM, respectively.

As for `CC(O)(c1ccccc1)c1ccc(NC(=O)C2CCC(NS(=O)(=O)C(C)(C)C)CC2)cc1` (centres unmarked) [Ia-57], the values for the 50% inhibitory concentration (IC50) in assay [1] and in assay [2] were 0.93 nM and 31 nM, respectively.

For the molecule `Cc1ccc(NC(=O)C2CCC(NS(=O)(=O)C(C)(C)C)CC2)cc1` (centres unmarked) [Ia-8], the figures for the 50% inhibitory concentration (IC50) in assay [1] and in assay [2] were 2.9 nM and 34 nM, respectively.

`C[C@@H]1CN(S(=O)(=O)c2ccc(NC(=O)C3CCC(NS(=O)(=O)C(C)(C)C)CC3)cc2)C[C@H](C)O1` (some centres unmarked) [Ia-44]: the IC50 in assay [1] was found to be 4.8 nM; in assay [2], 27 nM.

In the case of `C[C@@H]1CN(c2ccc(NC(=O)C3CCC(NS(=O)(=O)C(C)(C)C)CC3)cc2Cl)C[C@H](C)O1` (some centres unmarked) [Ia-25], the IC50 in assay [1] came to 1.1 nM; in assay [2], 18 nM.

For `CC(C)(C)S(=O)(=O)NC1CCC(C(=O)Nc2cccc(OC(F)(F)C(F)F)c2)CC1` (centres unmarked) [Compound I-126], the values for the IC50 in assay [1] and in assay [2] were 0.6 nM and 13.2 nM, respectively.

With `Cc1ccc2nc(-c3ccc(NC(=O)C4CCC(NS(=O)(=O)C(C)(C)C)CC4)cc3)sc2c1` (centres unmarked) [Ia-46], the IC50 in assay [1] was determined as 0.87 nM; in assay [2] it was 8.3 nM.

`CCCCOc1ccc(NC(=O)C2CCC(NS(=O)(=O)C(C)(C)C)CC2)cn1` (centres unmarked) [Compound I-167]: the half-inhibitory concentration (IC50) in assay [1] amounted to 0.72 nM; in assay [2] it was 39 nM.

In the case of `CCCCOc1cccc(NC(=O)C2CCC(NS(=O)(=O)C(C)(C)C)CC2)c1` (centres unmarked) [Compound I-161], the half-inhibitory concentration (IC50) in assay [1] amounted to 0.49 nM; in assay [2], 3.1 nM.

Turning to `CC(C)(C)S(=O)(=O)NC1CCC(C(=O)Nc2cccc(OC3CCCCC3)c2)CC1` (centres unmarked) [Ia-176], the concentration for half-maximal inhibition (IC50) is 0.63 nM in assay [1] and 5.1 nM in assay [2].

For `CC(C)(C)S(=O)(=O)NC1CCC(C(=O)Nc2nnc(-c3ccc(F)cc3)s2)CC1` (centres unmarked) [Compound I-213], the IC50 was found to be 0.44 nM in assay [1] and 4 nM in assay [2].

Regarding `CC(C)(C)S(=O)(=O)NC1CCC(C(=O)Nc2ccc(N3CCCC3=O)cc2)CC1` (centres unmarked) [Ia-183], the IC50 in assay [1] was determined as 1.9 nM; in assay [2] it was 7.8 nM.

On to `CC(C)(C)S(=O)(=O)NC1CCC(C(=O)Nc2ccc3ncsc3c2)CC1` (centres unmarked) [Compound I-207], for which the IC50 in assay [1] came out at 4.6 nM; in assay [2] it was 23 nM.

Turning to `CCCCc1ccc(NC(=O)CCCCNS(=O)(=O)C(C)CC)cc1` (centres unmarked) [Compound I-111], the IC50 in assay [1] worked out at 1.8 nM; in assay [2] it was 6.1 nM.

In the case of `CC(C)(C)S(=O)(=O)NC1CCC(C(=O)Nc2ccc(Nc3ccccc3)cc2)CC1` (centres unmarked) [Compound I-83], the values for the IC50 in assay [1] and in assay [2] were 0.61 nM and 29 nM, respectively.

As for `CC(C)(C)S(=O)(=O)NC1CCC(C(=O)Nc2cnc3ccccc3c2)CC1` (centres unmarked) [Compound I-139], the IC50 came to 0.41 nM in assay [1] and 7.6 nM in assay [2].

Regarding `CC(C)(C)S(=O)(=O)Nc1ccc(C(=O)Nc2ccc(-c3ncco3)cc2)cc1` [Ia-211], the IC50 in assay [1] was 4.8 nM; in assay [2], 240 nM.

In the case of `CC(C)(C)S(=O)(=O)NC1CCC(C(=O)Nc2cccc(N3CCCS3(=O)=O)c2)CC1` (centres unmarked) [Ia-207], the concentration for half-maximal inhibition (IC50) was 0.55 nM in assay [1] and 5.9 nM in assay [2].

Consider `CC(C)(C)S(=O)(=O)NC1CCC(C(=O)Nc2cccc(OCC3CC3)c2)CC1` (centres unmarked) [Ia-182], for which the IC50 in assay [1] was found to be 0.24 nM; in assay [2], 2.1 nM.

For the molecule `CCCCc1ccc(NC(=O)CCCCNS(=O)(=O)C(C)(C)C)cc1` [Compound I-11], the IC50 in assay [1] came to 1.3 nM; in assay [2] it was 5 nM.

On to `CCN(CC)c1ccc(NC(=O)C2CCC(NS(=O)(=O)C(C)(C)C)CC2)cc1` (centres unmarked) [Compound I-44], for which the IC50 worked out at 1 nM in assay [1] and 13.4 nM in assay [2].

Take `CCc1ccc(NC(=O)C2CCC(NS(=O)(=O)C(C)(C)C)CC2)cc1` (centres unmarked) [Ia-9]: the values for the IC50 in assay [1] and in assay [2] were 0.94 nM and 11 nM, respectively.

For `CCOCCN(CCOCC)c1ccc(NC(=O)C2CCC(NS(=O)(=O)C(C)(C)C)CC2)cc1` (centres unmarked) [Ia-45], the values for the IC50 in assay [1] and in assay [2] were 4.8 nM and 42 nM, respectively.

On to `CC(C)(C)S(=O)(=O)NC1CCC(C(=O)Nc2nnc(-c3ccccc3)s2)CC1` (centres unmarked) [Ia-66], for which the results for the half-inhibitory concentration (IC50) in assay [1] and in assay [2] were 0.59 nM and 3.2 nM, respectively.
